Laboratory results: patent US20260242416A1, “ANTIMICROBIAL PEPTIDES” (priority 2023, published 2026)
Read-outs that look alike come from different tables or passages of the source. Where a SMILES comes first, the peptide text is derived from it.

Assays:
E. coli ATCC 25922 = format: cell-based, Escherichia coli
Method: (§1) Bacteria were grown overnight at 37° C. in Mueller-Hinton Broth (MHB; Sigma-Aldrich, St. Louis. MO, USA) in a shaking incubator and aliquoted into cryovials with a 50% glycerol solution in a 1:1 ratio. No additives were added to the MHB during the growth of bacterial isolates. Glycerol stocks were stored at −80° C.
(§2) The antimicrobial activity of the putative AMPs was determined by a broth microdilution assay as described by the Clinical and Laboratory Standards Institute, with the published adaptations for testing of cationic peptides. Escherichia coli 25922 and Staphylococcus aureus 29213 isolates were purchased from the American Type Culture Collection (ATCC; Manassas, VA, USA). A human clinical isolate of Salmonella enterica serovar Enteritidis was provided by the BC Centre for Disease Control. Bacteria from stocks stored at −80° C. were streaked onto nonselective Columbia blood agar with 5% sheep blood (Oxoid) and incubated overnight at 37° C. Next, 2-4 colonies were streaked onto a new agar plate to ensure uniform health of colonies used in the broth microdilution assay. Isolated colonies were suspended in MHB and the optical density was measured with a spectrophotometer to create an initial inoculum concentration of approximately 1×10^8 cfu/mL. The inoculum was diluted 1:250 to a final concentration of 2-8×10^5 cfu/mL, which was confirmed by performing a Total Viability Count (TVC). The TVC consisted of plating a 1:1000 dilution of the final inoculum on nonselective media and was also used to confirm the health and purity of the inoculum in each trial.
(§3) Lyophilized 80 μg peptide aliquots synthesized by GenScript (Piscataway, NJ, USA) were resuspended to 1.28 mg/mL with UltraPure water (Thermo Fisher Scientific, Waltham, MA, USA) and serially diluted in polypropylene 96-well microtiter plates (Greiner Bio-One #650261, Kremsmunster, Austria) from 128 down to 0.5 μg/mL. Two columns per plate were reserved for growth and sterility controls. Inoculum was added to the wells containing the peptide and the growth control. Plates were incubated for 20-24 h at 37° C. The minimum inhibitory concentration (MIC) was determined as the lowest peptide concentration where there was no visible bacterial growth.

S. aureus ATCC 29213 = format: cell-based, Staphylococcus aureus
Method: as §1, §2, §3

[1] = system: Salmonella enterica serovar Enteritidis (human clinical isolate); format: cell-based
Method: as §1, §2, §3

[2] = serovar Enteritidis (human clinical isolate)
[3] = Table 14, first value of the cell, three independent experiments, highest concentration tested 128
[4] = Table 14, third value of the cell, three independent experiments, highest concentration tested 128
[5] = Table 14, second value of the cell, three independent experiments, highest concentration tested 128

CC[C@H](C)[C@H](NC(=O)[C@H](CO)NC(=O)[C@@H](NC(=O)[C@@H](NC(=O)[C@@H](N)C(C)C)[C@@H](C)O)[C@@H](C)CC)C(=O)N[C@@H](C)C(=O)N[C@@H](CCCNC(=N)N)C(=O)N[C@@H](CCCNC(=N)N)C(=O)N[C@H](C(=O)N[C@@H](CO)C(=O)N[C@@H](CO)C(=O)N[C@@H](Cc1c[nH]cn1)C(=O)N[C@@H](CCCCN)C(=O)N[C@@H](CCCNC(=N)N)C(=O)NCC(=O)O)C(C)C [BoAr5, VTISIARRVSSHKRG] (H-VTISIARRVSSHKRG-OH; N-terminus and C-terminus assumed)
>128/>128/>128 ug/mL: MIC (ug/mL) E. coli (E. coli ATCC 25922; ATCC 25922) | MIC (ug/mL) S. aureus (S. aureus ATCC 29213; ATCC 29213) | MIC (ug/mL) S. Enteritidis [1, 2]

CC[C@H](C)[C@H](NC(=O)[C@H](Cc1ccccc1)NC(=O)[C@H](CCCCN)NC(=O)[C@@H](NC(=O)[C@H](CCCCN)NC(=O)[C@@H](N)CC(N)=O)[C@@H](C)CC)C(=O)N[C@@H](CC(N)=O)C(=O)N[C@@H](CCCCN)C(=O)N[C@@H](Cc1ccc(O)cc1)C(=O)N[C@H](C(=O)N[C@@H](CCCCN)C(=O)N[C@@H](CCCCN)C(=O)N[C@H](C(=O)N[C@@H](CCC(N)=O)C(=O)N[C@@H](CC(C)C)C(=O)N[C@@H](CCCCN)C(=O)N[C@@H](CCCCN)C(=O)N[C@H](C(=O)N[C@@H](CC(C)C)C(=O)N[C@H](C(=O)N[C@@H](CCCCN)C(=O)N[C@@H](CO)C(=O)O)C(C)C)[C@@H](C)CC)C(C)C)C(C)C [BoCo1] (H-NKIKFINKYVKKVQLKKILVKS-OH; N-terminus and C-terminus assumed)
>128/>128/>128 ug/mL: MIC (ug/mL) E. coli (E. coli ATCC 25922; ATCC 25922) | MIC (ug/mL) S. aureus (S. aureus ATCC 29213; ATCC 29213) | MIC (ug/mL) S. Enteritidis [1, 2]

CC[C@H](C)[C@H](NC(=O)[C@H](Cc1c[nH]cn1)NC(=O)[C@H](Cc1c[nH]cn1)NC(=O)[C@H](Cc1c[nH]cn1)NC(=O)[C@@H](N)CCCCN)C(=O)N[C@@H](CCCCN)C(=O)N[C@@H](CC(C)C)C(=O)N[C@@H](CCCNC(=N)N)C(=O)N[C@@H](Cc1c[nH]cn1)C(=O)NCC(=O)N[C@@H](CCCNC(=N)N)C(=O)N[C@@H](Cc1c[nH]cn1)C(=O)N[C@@H](CCCNC(=N)N)C(=O)N[C@@H](CCCNC(=N)N)C(=O)N[C@@H](CO)C(=O)N[C@H](C(=O)N[C@@H](CC(C)C)C(=O)N[C@@H](CCCNC(=N)N)C(=O)N[C@H](C(=O)N[C@@H](CC(C)C)C(=O)N[C@H](C(=O)O)C(C)C)[C@@H](C)O)C(C)C [CaCa3] (H-KHHHIKLRHGRHRRSVLRTLV-OH; N-terminus and C-terminus assumed)
>128/>128/>128 ug/mL: MIC (ug/mL) E. coli (E. coli ATCC 25922; ATCC 25922) | MIC (ug/mL) S. aureus (S. aureus ATCC 29213; ATCC 29213) | MIC (ug/mL) S. Enteritidis [1, 2]

CC[C@H](C)[C@H](NC(=O)CN)C(=O)N[C@@H](Cc1ccccc1)C(=O)N[C@@H](CO)C(=O)N[C@@H](CC(C)C)C(=O)N[C@H](C(=O)N[C@@H](CCCCN)C(=O)NCC(=O)N[C@@H](C)C(=O)N[C@@H](C)C(=O)N[C@@H](CCCCN)C(=O)O)[C@@H](C)CC [LeBo1, GIFSLIKGAAK] (H-GIFSLIKGAAK-OH; N-terminus and C-terminus assumed)
>128/>128/>128 ug/mL: MIC (ug/mL) E. coli (E. coli ATCC 25922; [3]) | MIC (ug/mL) S. aureus (S. aureus ATCC 29213; [4]) | MIC (ug/mL) S. Enteritidis [1, 5]

CSCC[C@H](NC(=O)[C@@H](N)C(C)C)C(=O)N[C@@H](CC(C)C)C(=O)N1CCC[C@H]1C(=O)N[C@@H](CCCCN)C(=O)N[C@@H](Cc1ccccc1)C(=O)N[C@@H](CCCCN)C(=O)N[C@@H](CCCNC(=N)N)C(=O)O [MiDe1, VMLPKFKR] (H-VMLPKFKR-OH; N-terminus and C-terminus assumed)
>128/>128/>128 ug/mL: MIC (ug/mL) E. coli (E. coli ATCC 25922; ATCC 25922) | MIC (ug/mL) S. aureus (S. aureus ATCC 29213; ATCC 29213) | MIC (ug/mL) S. Enteritidis [1, 2]

CC[C@H](C)[C@H](NC(=O)[C@H](CC(=O)O)NC(=O)[C@H](CO)NC(=O)[C@H](CC(C)C)NC(=O)[C@@H]1CCCN1C(=O)[C@@H](N)[C@@H](C)O)C(=O)N[C@@H](Cc1ccccc1)C(=O)N[C@@H](CCCNC(=N)N)C(=O)NCC(=O)N[C@@H](CCC(N)=O)C(=O)N[C@@H](CC(C)C)C(=O)N[C@@H](CCCNC(=N)N)C(=O)N[C@@H](CO)C(=O)N[C@@H](CCCNC(=N)N)C(=O)N[C@H](C(=O)N[C@@H](CO)C(=O)N[C@@H](CCCNC(=N)N)C(=O)O)C(C)C [NaVi1, TPLSDIFRGQLRSRVSR] (H-TPLSDIFRGQLRSRVSR-OH; N-terminus and C-terminus assumed)
>128/>128/>128 ug/mL: MIC (ug/mL) E. coli (E. coli ATCC 25922; ATCC 25922) | MIC (ug/mL) S. aureus (S. aureus ATCC 29213; ATCC 29213) | MIC (ug/mL) S. Enteritidis [1, 2]

CC(C)C[C@H](NC(=O)CNC(=O)[C@H](CO)NC(=O)[C@H](CO)NC(=O)[C@H](CO)NC(=O)[C@H](CO)NC(=O)[C@H](CC(C)C)NC(=O)[C@@H]1CCCN1C(=O)[C@H](CO)NC(=O)[C@H](CC(C)C)NC(=O)[C@H](CO)NC(=O)[C@@H](N)CO)C(=O)NCC(=O)N[C@@H](CCCCN)C(=O)N[C@@H](CCCCN)C(=O)N[C@@H](CCCCN)C(=O)N[C@@H](CCCCN)C(=O)N[C@@H](CCCNC(=N)N)C(=O)N[C@@H](CCCCN)C(=O)N[C@@H](CO)C(=O)N[C@@H](CCCCN)C(=O)N[C@@H](CCCNC(=N)N)C(=O)N[C@@H](C)C(=O)N[C@@H](CO)C(=O)N[C@@H](CCCNC(=N)N)C(=O)O [NaVi2] (H-SSLSPLSSSSGLGKKKKRKSKRASR-OH; N-terminus and C-terminus assumed)
>128/>128/>128 ug/mL: MIC (ug/mL) E. coli (E. coli ATCC 25922; ATCC 25922) | MIC (ug/mL) S. aureus (S. aureus ATCC 29213; ATCC 29213) | MIC (ug/mL) S. Enteritidis [1, 2]

CC[C@H](C)[C@H](NC(=O)[C@H](CS)NC(=O)[C@H](CCCNC(=N)N)NC(=O)[C@H](CS)NC(=O)[C@H](CO)NC(=O)[C@H](CCCNC(=N)N)NC(=O)[C@H](CO)NC(=O)[C@H](CO)NC(=O)[C@H](CO)NC(=O)CN)C(=O)N[C@@H](CCCNC(=N)N)C(=O)N[C@@H](CC(C)C)C(=O)N[C@@H](CO)C(=O)N[C@@H](CCCNC(=N)N)C(=O)N[C@@H](CC(C)C)C(=O)N[C@@H](CO)C(=O)N[C@@H](CO)C(=O)N[C@@H](CCCCN)C(=O)N[C@@H](CCCNC(=N)N)C(=O)N[C@H](C(=O)O)[C@@H](C)O [NaVi4] (H-GSSSRSCRCIRLSRLSSKRT-OH; N-terminus and C-terminus assumed)
>128/>128/>128 ug/mL: MIC (ug/mL) E. coli (E. coli ATCC 25922; ATCC 25922) | MIC (ug/mL) S. aureus (S. aureus ATCC 29213; ATCC 29213) | MIC (ug/mL) S. Enteritidis [1, 2]

CC[C@H](C)[C@H](NC(=O)CNC(=O)[C@H](CO)NC(=O)[C@@H](NC(=O)[C@H](CC(C)C)NC(=O)CN)[C@@H](C)CC)C(=O)N[C@@H](CC(C)C)C(=O)NCC(=O)N[C@@H](C)C(=O)NCC(=O)N[C@@H](CCCCN)C(=O)N[C@@H](CCCCN)C(=O)O [OdMa8, GLISGILGAGKK] (H-GLISGILGAGKK-OH; N-terminus and C-terminus assumed)
>128/>128/>128 ug/mL: MIC (ug/mL) E. coli (E. coli ATCC 25922; [3]) | MIC (ug/mL) S. aureus (S. aureus ATCC 29213; [4]) | MIC (ug/mL) S. Enteritidis [1, 5]

CC[C@H](C)[C@H](NC(=O)[C@H](Cc1c[nH]cn1)NC(=O)[C@H](Cc1c[nH]cn1)NC(=O)[C@H](Cc1ccc(O)cc1)NC(=O)[C@@H](N)CCCCN)C(=O)N[C@@H](CCCCN)C(=O)N[C@@H](CC(C)C)C(=O)N[C@@H](CCCNC(=N)N)C(=O)N[C@@H](Cc1c[nH]cn1)C(=O)NCC(=O)N[C@@H](CCCNC(=N)N)C(=O)N[C@@H](Cc1c[nH]cn1)C(=O)N[C@@H](CCCNC(=N)N)C(=O)N[C@@H](CCCNC(=N)N)C(=O)N[C@H](C(=O)N[C@H](C(=O)N[C@@H](Cc1c[nH]cn1)C(=O)O)[C@@H](C)CC)[C@@H](C)O [PaVa2, KYHHIKLRHGRHRRTIH] (H-KYHHIKLRHGRHRRTIH-OH; N-terminus and C-terminus assumed)
>128/>128/>128 ug/mL: MIC (ug/mL) E. coli (E. coli ATCC 25922; ATCC 25922) | MIC (ug/mL) S. aureus (S. aureus ATCC 29213; ATCC 29213) | MIC (ug/mL) S. Enteritidis [1, 2]
